Results on one compound are retold here after patent publication US20060062846A1, “Alfuzosin tablets and synthesis” (Cimex Pharma AG, priority 2004, published 2006).

One data set can be described thus: solubility in water. In kind it is physicochemical.
For data set [1] the following is noted: immediate-release tablet, cited from earlier work.

The structures appear in SMILES notation. Structures can show the parent of a compound that is named as a salt.

With `COc1cc2nc(N(C)CCCNC(=O)C3CCCO3)nc(N)c2cc1OC` (racemic) [alfuzosin hydrochloride, (R,S)-N-(3-(4-amino-6,7-dimethoxy-2-quinazolinyl)methylamino) propyl) tetrahydro-2-furancarboxamide hydrochloride], the solubility in water entry in the data set “solubility in water” is reported as “freely soluble in water”. Further, in data set [1], the “Peak plasma concentrations reached after administration (time)” value is no more than 1 h and the “inter-individual fluctuations in plasma concentrations” value is given as “sevenfold”. In addition, the Terminal elimination half-life entry in data set [1] (range printed (1-10 h)) is “approximately 5 h”. Besides, in data set [1] (range printed (45-90%)), the Bioavailability is given as 64%.
